Marks after values point to notes of the source that are not given here.
Tests used:
Assay type in all cases: in vivo
Settings in all cases: 100 = 100% disease control
Botrytis cinerea = assay: Test C: tomato Botrytis on tomato seedlings, sprayed the day before inoculation, visual disease rating
Procedure, shortened: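 Each compound is first taken up in acetone at 3% of the final volume and then brought to the desired ppm in a 50:50 acetone–water mix with 250 ppm surfactant (polyhydric alcohol esters). Tomato seedlings receive the suspension to run-off, normally at 200 ppm, occasionally 40 ppm.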

Alternaria solani = assay: Test D: tomato early blight, sprayed the day before inoculation, visual disease rating
Procedure, shortened: (§1)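 Test rate was 200 ppm, sprayed to run-off and equal to 500 g/ha, or 40 ppm where marked. The compound was first taken up in acetone at 3% of final volume and suspended in acetone/purified water (50/50) containing 250 ppm Trem® 014.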

Septoria nodorum = assay: Test F: wheat glume blotch on wheat seedlings, sprayed the day before inoculation, visual disease rating
Procedure, shortened: as §1

Septoria tritici = assay: Test G: wheat leaf blotch on wheat seedlings, sprayed the day before inoculation, visual disease rating
Procedure, shortened: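 Spray to run-off, 200 ppm (≈500 g/ha; starred = 40 ppm), acetone/water 50/50 + 250 ppm Trem® 014. Spore inoculation +1 d. 24° C saturated 48 h → 20° C 19 d. Visual rating.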

[1] = tested on: Puccinia recondita f. sp. tritici; assay: Test H: wheat leaf rust, test suspension sprayed after inoculation of wheat seedlings, visual disease rating
Procedure, shortened: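 Wheat seedlings inoculated with P. recondita spores, held 24 h saturated at 20 °C, then 2 days in growth chamber at 20 °C; compound suspension (acetone/water with Trem 014) sprayed to run-off afterwards. Rated visually; 200 ppm (≈500 g/ha) unless marked *, which denotes 40 ppm.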

[2] = tested on: Puccinia recondita f. sp. tritici; assay: Test I: wheat leaf rust on wheat seedlings, sprayed the day before inoculation, visual disease rating
Procedure, shortened: as §1

[3] = tested on: Erysiphe graminis f. sp. tritici; assay: Test J: wheat powdery mildew on wheat seedlings, sprayed the day before inoculation, visual disease rating
Procedure, shortened: as §1

[4] = 200 ppm, 0 = no control relative to controls
[5] = 40 ppm (marked *), 0 = no control

Row | Compound | Test C disease control rating (Botrytis cinerea; [4]) | Test D disease control rating (Alternaria solani; [4]) | Test F disease control rating (Septoria nodorum; [4]) | Test G disease control rating (Septoria tritici; [4]) | Test H disease control rating [1, 4] | Test I disease control rating [2, 4] | Test J disease control rating [3, 4] | further results
1 | COc1cc(F)c(-c2c(Cl)nc(Cl)n2Cc2ccc(Cl)cc2)c(F)c1 [compound 284] | – | – | – | – | – | – | – | Test C disease control rating (Botrytis cinerea; 200 ppm, 0 = no control): 100%; Test D disease control rating (Alternaria solani; 200 ppm, 0 = no control): 99%; Test F disease control rating (Septoria nodorum; 200 ppm, 0 = no control): 92%; Test G disease control rating (Septoria tritici; 200 ppm, 0 = no control): 95%; Test H disease control rating ([1]; 200 ppm, 0 = no control): 6%; Test I disease control rating ([2]; 200 ppm, 0 = no control): 99%; Test J disease control rating ([3]; 200 ppm, 0 = no control): 100%
2 | COc1cc(F)c(-n2c(Cl)nc(C)c2-c2ccc(Cl)nc2)c(F)c1 [Compound 696, 2-chloro-5-[2-chloro-1-(2,6-difluoro-4-methoxyphenyl)-4-methyl-1H-imidazol-5-yl]pyridine] | – | – | – | – | – | – | – | pest or weed control at 40 ppm (Botrytis cinerea; Botrytis cinerea, 120 h, 40 ppm (marked *)): 100%; pest or weed control at 40 ppm (Alternaria solani; Alternaria solani, 168 h, 40 ppm (marked *)): 100%; pest or weed control at 40 ppm (Septoria nodorum; Parastagonospora nodorum, 264 h, 40 ppm (marked *)): 100%; pest or weed control at 40 ppm (Septoria tritici; Zymoseptoria tritici, 504 h, 40 ppm (marked *)): 99%; pest or weed control at 40 ppm ([1]; Puccinia recondita, 96 h, 40 ppm (marked *)): 99%; pest or weed control at 40 ppm ([2]; Puccinia recondita, 168 h, 40 ppm (marked *)): 99%; pest or weed control at 40 ppm ([3]; Blumeria graminis, 168 h, 40 ppm (marked *)): 100%
3 | COc1cc(F)c(-c2c(Cl)nc(Cl)n2Cc2ccc(C)cc2)c(F)c1 [compound 291] | – | – | – | – | – | – | – | Test C disease control rating (Botrytis cinerea; 200 ppm, 0 = no control): 99%; Test D disease control rating (Alternaria solani; 200 ppm, 0 = no control): 80%; Test F disease control rating (Septoria nodorum; 200 ppm, 0 = no control): 0%; Test G disease control rating (Septoria tritici; 200 ppm, 0 = no control): 94%; Test H disease control rating ([1]; 200 ppm, 0 = no control): 6%; Test I disease control rating ([2]; 200 ppm, 0 = no control): 98%; Test J disease control rating ([3]; 200 ppm, 0 = no control): 94%
4 | COc1cc(F)c(-c2c(Cl)nc(C)n2-c2ccc(Cl)nc2)c(F)c1 [compound 739] | 100% | 100% | 100% | 100% | 100% | 100% | 100% | –
5 | COc1cc(F)c(-c2c(Cl)nnn2-c2ccc(Cl)cc2)c(F)c1 [compound 626] | 99% | 99% | 0% | 100% | 17% | 79% | 97% | –
6 | Fc1cc(-n2c(Cl)nc(Cl)c2-c2ccc(Br)cn2)ccc1Cl [compound 487] | 96% | 0% | 0% | 88% | 0% | 78% | 0% | –
7 | Fc1cccc(-n2cnc(Cl)c2-c2c(F)ccc(Br)c2F)c1 [compound 623] | 98% | 33% | 0% | 97% | 0% | 98% | 100% | –
8 | COc1cc(F)c(-c2c(Cl)nc(Cl)n2-c2ccc(OC)nc2Cl)c(F)c1 [compound 515] | 97% | 99% | 0% | 100% | 100% | 100% | 100% | –
9 | Cc1nc(Cl)n(-c2ccc(Cl)c(F)c2)c1-c1ccnc(F)c1 [compound 323] | 100% | 99% | 0% | 100% | 70% | 100% | 99% | –
10 | O=C(O)Cc1nc(Br)c(-c2c(F)cccc2F)n1-c1ccc(Cl)cc1 [Compound 570, 4-bromo-1-(4-chlorophenyl)-5-(2,6-difluorophenyl)-1H-imidazole-2-acetic acid] | – | – | – | – | – | – | – | pest or weed control at 200 ppm (Botrytis cinerea; Botrytis cinerea, 120 h, 200 ppm, 0 = no control relative to controls): 0%; pest or weed control at 200 ppm (Alternaria solani; Alternaria solani, 168 h, 200 ppm, 0 = no control relative to controls): 0%; pest or weed control at 200 ppm (Septoria nodorum; Parastagonospora nodorum, 264 h, 200 ppm, 0 = no control relative to controls): 0%; pest or weed control at 200 ppm (Septoria tritici; Zymoseptoria tritici, 504 h, 200 ppm, 0 = no control relative to controls): 97%; pest or weed control at 200 ppm ([1]; Puccinia recondita, 96 h, 200 ppm, 0 = no control relative to controls): 0%; pest or weed control at 200 ppm ([2]; Puccinia recondita, 168 h, 200 ppm, 0 = no control relative to controls): 13%; pest or weed control at 200 ppm ([3]; Blumeria graminis, 168 h, 200 ppm, 0 = no control relative to controls): 69%
11 | COc1ccc(F)c(-c2c(N(C)C)ncn2Cc2ccc(Cl)cc2)c1F [compound 271] | – | – | – | – | – | – | – | Test C disease control rating (Botrytis cinerea; 200 ppm, 0 = no control): 99%; Test D disease control rating (Alternaria solani; 200 ppm, 0 = no control): 9%; Test F disease control rating (Septoria nodorum; 200 ppm, 0 = no control): 0%; Test G disease control rating (Septoria tritici; 200 ppm, 0 = no control): 82%; Test H disease control rating ([1]; 200 ppm, 0 = no control): 0%; Test I disease control rating ([2]; 200 ppm, 0 = no control): 83%; Test J disease control rating ([3]; 200 ppm, 0 = no control): 0%
12 | Fc1cc(F)c(-c2c(Cl)ncn2-c2cccc(OC(F)F)c2)c(F)c1 [compound 584] | 99% | 99% | 0% | 98% | 0% | 100% | 99% | –
13 | Fc1cc(-n2c(Cl)nc(Br)c2-c2c(F)ccc(F)c2F)ccc1Cl [compound 350] | 99% | 100% | 82% | 91% | 0% | 99% | 100% | –
14 | CC(=O)Nc1ccc(-n2c(Cl)nc(Cl)c2-c2c(F)cccc2F)cc1Cl [compound 636] | – | – | – | – | – | – | – | Test C disease control rating (Botrytis cinerea; 40 ppm (marked *)): 90* %; Test D disease control rating (Alternaria solani; 40 ppm (marked *)): 24* %; Test F disease control rating (Septoria nodorum; 40 ppm (marked *)): 0* %; Test G disease control rating (Septoria tritici; 40 ppm (marked *)): 95* %; Test H disease control rating ([1]; 40 ppm (marked *)): 0* %; Test I disease control rating ([2]; 40 ppm (marked *)): 52* %; Test J disease control rating ([3]; 40 ppm (marked *)): 0* %
15 | COc1ccc(F)c(-c2c(Cl)nc(C)n2-c2ccc(C)cc2)c1F [compound 333] | – | – | – | – | – | – | – | Test C disease control rating (Botrytis cinerea; [5]): 100* %; Test D disease control rating (Alternaria solani; [5]): 100* %; Test F disease control rating (Septoria nodorum; [5]): 99* %; Test G disease control rating (Septoria tritici; [5]): 91* %; Test H disease control rating [1, 5]: 0* %; Test I disease control rating [2, 5]: 100* %; Test J disease control rating [3, 5]: 100* %
16 | COc1ccc(-c2c(Cl)nc(Cl)n2-c2ccc(Cl)c(F)c2)cn1 [compound 434] | 96% | 9% | 0% | 99% | 0% | 68% | 76% | –
17 | COc1ccc(Cl)c(-c2c(Cl)ncn2-c2ccc(Cl)cc2)c1F [compound 482] | 99% | 99% | 69% | 95% | 0% | 91% | 99% | –
18 | COc1cc(F)c(-c2c(C)nc(Cl)n2-c2ccc(C(F)(F)F)nc2)c(F)c1 [compound 732] | 100% | 100% | 100% | 99% | 0% | 99% | 100% | –
19 | Cc1nc(Cl)n(-c2ccc(Cl)nc2)c1-c1c(F)cccc1F [compound 693] | 100% | 100% | 99% | 99% | 100% | 100% | 100% | –
20 | COc1cc(F)c(-c2c(-c3ccc(I)cc3)c(OC)nn2C)c(F)c1 [compound 431] | 9% | 9% | 0% | 98% | 9% | 0% | 0% | –
21 | Cc1nc(Cl)c(Cc2c(F)cc(F)cc2F)n1-c1ccc(Cl)cc1 [compound 531] | 100% | 0% | 0% | 99% | 41% | 99% | 95% | –
22 | Fc1cc(-n2c(Cl)nc(Cl)c2-c2c(F)cncc2F)ccc1Cl [compound 593] | 100% | 100% | 99% | 96% | 99% | 100% | 100% | –

Reference: US20110045101A1, “FUNGICIDAL SUBSTITUTED AZOLES” (E.I. Du Pont De Nemours and Company, priority 2009, published 2011)
